Key:
Pea aphid [1] = experiment: Systemic activity, soil-watering, pea aphid; type: in vivo, Acyrthosiphon pisum [Harris]; details: Acyrthosiphon pisum, 48 h, systemic, PA, read-out: Percent Kill
Experimental: (§1) Initial Contact Activity: One half gram of test compound was dissolved in 40 ml of acetone and this solution was dispersed in 360 ml of water containing one drop of isooctylphenyl polyethoxyethanol. Aliquots of this solution, which corresponds to 1250 ppm of active ingredient, were diluted with an appropriate amount of water to provide solutions containing various concentrations of active ingredient. Test organisms and techniques were as follows: The activity against the Mexican bean beetle (Epilachna varivestis Muls.) and the southern armyworm (Spodoptera eridania [Cram.]) was evaluated by dipping the leaves of pinto bean plants into the test solution and infesting the leaves with the appropriate immature-form insects when the foiliage had dried; the activity against the pea aphid (Acyrthosiphon pisum [Harris]) was evaluated on broad bean plants whose leaves were dipped before infestation with adult aphids; the activity against two-sotted spider mites (Tetranychus urticae Koch) was evaluated on pinto bean plants whose leaves were dipped after infestation with adult mites; the activity against the milkweed bug (Oncopeltus fasciatus [Dallas]), and the plum curculio (Conotrachelus nenuphar [Herbst]) was evaluated by spraying the test solutions into glass dishes or jars containing the adult insects; the activity against the confused flour beetle (Tribolium confusum duVal) was evaluated by introducing the insects into glass dishes which had been previously sprayed with test solution and allowed to dry. All organisms in the test were maintained in a holding room at 80° F and 50% relative humidity for an exposure period of 48 hours. At the end of this time, the dead and living insects or mites were counted, and the percent kill was calculated.
(§2) Systemic Activity: Systemic activity was measured using a soil-watering technique. Test organisms were Mexican bean beetle, southern armyworm, pea aphid, and mites on plants as described above in this Example. With appropriate precautions to avoid contact of the solution with the test plant surfaces, 25 ml of a test solution, prepared as above to contain the desired amount of active ingredient, were poured evenly over the surface of the soil in which the plant was growing. The treated plants were maintained under normal growing conditions for three days to permit translocation of the toxicant, after which the leaves were infested. Two days after infestation, counts of living and dead insects were made.

Southern armyworm = experiment: Systemic activity, soil-watering, southern armyworm; type: in vivo, Spodoptera eridania [Cram.]; details: Spodoptera eridania, 48 h, systemic, AW, read-out: Percent Kill
Experimental: as §1, §2

Mexican bean beetle [2] = experiment: Residual (7-day) contact activity, Mexican bean beetle; type: in vivo, Epilachna varivestis Muls.; details: Epilachna varivestis, 168 h
Experimental: as §1
(§3) Residual Contact Activity: The residual contact activity of the compounds was determined on the same organisms using the techniques described above, except that in each case the treated surface was allowed to dry and was exposed to normal light and air for seven days before introduction of the mites or insects.

Mexican bean beetle [3] = experiment: Systemic activity, soil-watering, Mexican bean beetle; type: in vivo, Epilachna varivestis Muls.; details: Epilachna varivestis, 48 h, systemic, BB, read-out: Percent Kill
Experimental: as §1, §2

Mexican bean beetle [4] = experiment: Initial contact activity, leaf dip, Mexican bean beetle; type: in vivo, Epilachna varivestis Muls.; details: Epilachna varivestis, foliar, 48 h, initial, BB, 48 hours, read-out: Percent Kill
Experimental: as §1

Pea aphid [5] = experiment: Initial contact activity, leaf dip, pea aphid; type: in vivo, Acyrthosiphon pisum [Harris]; details: Acyrthosiphon pisum, foliar, 48 h, initial, PA, 48 hours, read-out: Percent Kill
Experimental: as §1

Two-spotted spider mite [6] = experiment: Residual (7-day) contact activity, two-spotted spider mite; type: in vivo, Tetranychus urticae Koch; details: Tetranychus urticae, 168 h
Experimental: as §1, §3

Milkweed bug [7] = experiment: Residual (7-day) contact activity, milkweed bug; type: in vivo, Oncopeltus fasciatus [Dallas]; details: Oncopeltus fasciatus, 168 h
Experimental: as §1, §3

Two-spotted spider mite [8] = experiment: Systemic activity, soil-watering, two-spotted spider mite; type: in vivo, Tetranychus urticae Koch; details: Tetranychus urticae, 48 h, systemic, SM, read-out: Percent Kill
Experimental: as §1, §2

Milkweed bug [9] = experiment: Initial contact activity, spray, milkweed bug; type: in vivo, Oncopeltus fasciatus [Dallas]; details: Oncopeltus fasciatus, 48 h, initial, MWB, 48 hours, read-out: Percent Kill
Experimental: as §1

Structure (SMILES): CSC(C)(C)C=NOC(=O)N(C)SN(C)C [Example IV, 2-Methyl-2-(methylthio)propanal O-[(dimethylaminosulfenyl)-(methyl)carbamoyl]oxime]
- mortality at 5 ppm (Pea aphid [1]; 5 PPM): 100%
- mortality at 10 ppm (Pea aphid [1]; 10 PPM): 100%
- mortality at 312 ppm (Pea aphid [1]; 312 PPM): 100%
- mortality at 39 ppm (Southern armyworm; 39 PPM): 0%
- mortality at 312 ppm (Southern armyworm; 312 PPM): 100%
- mortality at 625 ppm (Mexican bean beetle [2]; read-out: Percent Kill, residual 7-day, BB, 625 PPM): 40%
- mortality at 312 ppm (Mexican bean beetle [2]; residual 7-day, BB, 312 PPM, read-out: Percent Kill): 17%
- mortality at 1250 ppm (Mexican bean beetle [2]; residual 7-day, BB, 1250 PPM, read-out: Percent Kill): 50%
- mortality at 39 ppm (Mexican bean beetle [3]; 39 PPM): 100%
- mortality at 312 ppm (Mexican bean beetle [3]; 312 PPM): 100%
- mortality at 20 ppm (Mexican bean beetle [4]; 20 PPM): 5%
- mortality at 39 ppm (Mexican bean beetle [4]; 39 PPM): 6%
- mortality at 156 ppm (Mexican bean beetle [4]; 156 PPM): 39%
- mortality at 1250 ppm (Mexican bean beetle [4]; 1250 PPM): 100%
- mortality at 20 ppm (Pea aphid [5]; 20 PPM): 0%
- mortality at 39 ppm (Pea aphid [5]; 39 PPM): 5%
- mortality at 156 ppm (Pea aphid [5]; 156 PPM): 95%
- mortality at 1250 ppm (Pea aphid [5]; 1250 PPM): 100%
- mortality at 625 ppm (Two-spotted spider mite [6]; read-out: Percent Kill, residual 7-day, SM, 625 PPM): 0%
- mortality at 39 ppm (Two-spotted spider mite [6]; residual 7-day, SM, 39 PPM, read-out: Percent Kill): 18%
- mortality at 156 ppm (Two-spotted spider mite [6]; residual 7-day, SM, 156 PPM, read-out: Percent Kill): 52%
- mortality at 1250 ppm (Two-spotted spider mite [6]; residual 7-day, SM, 1250 PPM, read-out: Percent Kill): 100%
- mortality at 625 ppm (Milkweed bug [7]; read-out: Percent Kill, residual 7-day, MWB, 625 PPM): 100%
- mortality at 312 ppm (Milkweed bug [7]; residual 7-day, MWB, 312 PPM, read-out: Percent Kill): 65%
- mortality at 1250 ppm (Milkweed bug [7]; residual 7-day, MWB, 1250 PPM, read-out: Percent Kill): 100%
- mortality at 5 ppm (Two-spotted spider mite [8]; 5 PPM): 100%
- mortality at 39 ppm (Two-spotted spider mite [8]; 39 PPM): 100%
- mortality at 312 ppm (Two-spotted spider mite [8]; 312 PPM): 100%
- mortality at 5 ppm (Milkweed bug [9]; 5 PPM): 20%
- mortality at 10 ppm (Milkweed bug [9]; 10 PPM): 26%
- mortality at 20 ppm (Milkweed bug [9]; 20 PPM): 43%
- mortality at 1250 ppm (Milkweed bug [9]; 1250 PPM): 100%

Reference: patent US4108991A, “N-aminosulfenyl derivatives of aldicarb” (priority 1976, dated 1978)
